Assay results: PMC9545763, “Therapeutic potential of deuterium‐stabilized (R)‐pioglitazone—PXL065—for X‐linked adrenoleukodystrophy” (Journal of Inherited Metabolic Disease, 2022)

Target: T1, ACSL4 (long-chain acyl-CoA synthetase 4) (Rattus norvegicus, UniProt O35547)
T1 construct: purified recombinant rat FLAG-ACSL4
Experiment: ACSL enzyme activity assay with […] palmitate, scintillation counting
Type: biochemical

T1 sequence (O35547 whole entry): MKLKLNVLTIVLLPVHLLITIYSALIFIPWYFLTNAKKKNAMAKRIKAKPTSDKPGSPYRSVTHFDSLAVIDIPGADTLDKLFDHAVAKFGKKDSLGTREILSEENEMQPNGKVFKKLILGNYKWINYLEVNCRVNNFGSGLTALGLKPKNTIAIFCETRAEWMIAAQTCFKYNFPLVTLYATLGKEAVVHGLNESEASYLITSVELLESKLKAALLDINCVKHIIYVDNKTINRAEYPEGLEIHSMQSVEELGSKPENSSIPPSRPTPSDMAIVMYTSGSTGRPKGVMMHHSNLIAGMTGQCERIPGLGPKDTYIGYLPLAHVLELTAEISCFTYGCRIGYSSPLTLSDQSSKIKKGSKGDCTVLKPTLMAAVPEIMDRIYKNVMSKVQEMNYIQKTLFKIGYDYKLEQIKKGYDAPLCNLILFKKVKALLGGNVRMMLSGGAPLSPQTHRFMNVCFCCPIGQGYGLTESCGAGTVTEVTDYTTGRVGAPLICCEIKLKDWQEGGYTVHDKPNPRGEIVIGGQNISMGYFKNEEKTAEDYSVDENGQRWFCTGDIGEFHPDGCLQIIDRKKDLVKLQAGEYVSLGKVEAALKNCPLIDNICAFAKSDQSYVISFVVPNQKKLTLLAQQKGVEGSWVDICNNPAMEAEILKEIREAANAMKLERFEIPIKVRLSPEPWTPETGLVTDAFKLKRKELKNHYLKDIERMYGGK

CCc1ccc(CCOc2ccc(CC3SC(=O)NC3=O)cc2)nc1 (racemic) [pioglitazone]
IC50: 2080 nM

CCc1ccc(CCOc2ccc(C[C@H]3SC(=O)NC3=O)cc2)nc1 [PXL065]
IC50: 2120 nM
